Assay [1] can be described thus: Inhibition of bacterial AmpC. Also noted: species or system Bacteria.
Assay [2] concerns Klebsiella pneumoniae. The settings on record: isolate 342.
The target of assay [3] is Metallo-beta-lactamase type 2 (Klebsiella pneumoniae) (UniProt C7C422). As to conditions: NCTC 13443.
Assay [4] relates to Bacteria.
Description: Inhibition of bacterial beta-lactamase KPC2 expressed in Escherichia coli BL21(DE3) assessed as cefotaxime MIC at 50 ug/ml incubated for 16 hrs by broth microdilution method (Rvb = 16 ug/ml)
Assay [5] concerns the target Beta-lactamase (Escherichia coli) (UniProt Q7BB82). The settings on record: G69.
The subject of assay [6] is Escherichia coli. Kind of assay: microbe, parasite or virus in culture. Type of assay: functional. The settings on record: NCTC 10118, 16 h.

This is an account of results in ChEMBL document CHEMBL4118200, “Boronic acid inhibitors of the class A β-lactamase KPC-2” (Bioorg Med Chem, 2018).

In brackets after ≈: the same amount, converted by molar mass.

Chain of Metallo-beta-lactamase type 2 (Klebsiella pneumoniae) (C7C422 whole entry): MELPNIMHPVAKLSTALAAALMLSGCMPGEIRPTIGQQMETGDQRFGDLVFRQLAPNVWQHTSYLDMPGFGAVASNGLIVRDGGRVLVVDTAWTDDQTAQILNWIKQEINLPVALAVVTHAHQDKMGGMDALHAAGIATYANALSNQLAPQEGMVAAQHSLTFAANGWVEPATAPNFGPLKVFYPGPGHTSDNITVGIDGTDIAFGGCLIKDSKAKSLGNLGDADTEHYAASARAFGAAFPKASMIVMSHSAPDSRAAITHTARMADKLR
Chain of Beta-lactamase (Escherichia coli) (Q7BB82 as listed by the source): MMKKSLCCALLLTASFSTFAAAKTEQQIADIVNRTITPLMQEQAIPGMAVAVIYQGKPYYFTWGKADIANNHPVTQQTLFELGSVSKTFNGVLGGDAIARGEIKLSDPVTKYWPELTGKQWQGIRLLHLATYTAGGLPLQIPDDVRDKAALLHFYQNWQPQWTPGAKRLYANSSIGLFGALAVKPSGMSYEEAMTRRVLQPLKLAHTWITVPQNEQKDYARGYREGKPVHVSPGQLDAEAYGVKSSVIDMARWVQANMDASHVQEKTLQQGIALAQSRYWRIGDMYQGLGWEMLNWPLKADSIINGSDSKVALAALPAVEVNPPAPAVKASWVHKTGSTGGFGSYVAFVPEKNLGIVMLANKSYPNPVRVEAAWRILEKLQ

The compound `O=C(Cc1cccs1)N[C@@H](B(O)O)c1ccccc1` had a Ki in assay [1] of 35 nM.
In the case of `OB(O)c1cccc(Cn2cc(-c3ccccn3)nn2)c1`, the MIC in assay [2] is over 32 µg/mL; in assay [3] it was over 32 µg/mL; in assay [4], under 0.03 µg/mL; in assay [5], over 32 µg/mL; in assay [6], at most 0.03 µg/mL.
`OB(O)c1ccc(Cn2cc(-c3ccsc3)nn2)cc1`: the MIC in assay [2] is over 32 µg/mL; in assay [3], over 32 µg/mL; in assay [4] it was under 0.03 µg/mL; in assay [5] it was over 32 µg/mL; in assay [6], at most 0.03 µg/mL.
On to `COc1ccc(-c2cn(Cc3ccc(B(O)O)cc3)nn2)cc1`, for which the MIC is over 32 µg/mL in assay [2]; over 32 µg/mL in assay [3]; 0.06 µg/mL (≈ 0.194 µM) in assay [4]; over 32 µg/mL in assay [5]; at most 0.03 µg/mL in assay [6].
With `OB(O)c1ccc(Cn2cc(-c3ccccn3)nn2)cc1`, the MIC in assay [2] was over 32 µg/mL; in assay [3], over 32 µg/mL; in assay [4] it was under 0.03 µg/mL; in assay [5] it was over 32 µg/mL; in assay [6] it was at most 0.03 µg/mL.
With `O=C(O)C/C=C/c1c(B(O)O)sc2ccccc12`, in assay [1], the inhibition constant (Ki) came out at 90 nM.
As to `OB(O)c1cccc(/N=N/c2cc3ccccc3cc2O)c1`, the Ki in assay [1] is 300 nM.
As for `OB(O)c1cccc(Cn2cc(-c3cccs3)nn2)c1`, the MIC is over 32 µg/mL in assay [2]; over 32 µg/mL in assay [3]; under 0.03 µg/mL in assay [4]; over 32 µg/mL in assay [5]; at most 0.03 µg/mL in assay [6].
`OB(O)c1ccc(Cn2cc(-c3ccccc3)nn2)cc1`: the MIC in assay [2] is over 32 µg/mL; in assay [3], over 32 µg/mL; in assay [4], under 0.03 µg/mL; in assay [5], over 32 µg/mL; in assay [6], at most 0.03 µg/mL.
Turning to `OB(O)c1cccc(Cn2cc(-c3cccnc3)nn2)c1`, the MIC in assay [2] was over 32 µg/mL; in assay [3], over 32 µg/mL; in assay [4], under 0.03 µg/mL; in assay [5], over 32 µg/mL; in assay [6] it was at most 0.03 µg/mL.
As for `[N-]=[N+]=NCc1ccc(B(O)O)cc1`, the MIC is over 32 µg/mL in assay [2]; over 32 µg/mL in assay [3]; under 0.03 µg/mL in assay [4]; over 32 µg/mL in assay [5]; at most 0.03 µg/mL in assay [6].
As to `OB(O)c1cccc(Cn2cc(-c3ccccc3)nn2)c1`, the MIC was over 32 µg/mL in assay [2]; over 32 µg/mL in assay [3]; under 0.03 µg/mL in assay [4]; over 32 µg/mL in assay [5]; at most 0.03 µg/mL in assay [6].
`OB(O)c1ccc(Cn2cc(-c3cccnc3)nn2)cc1`: the MIC in assay [2] was over 32 µg/mL; in assay [3], over 32 µg/mL; in assay [4] it was under 0.03 µg/mL; in assay [5] it was over 32 µg/mL; in assay [6] it was at most 0.03 µg/mL.
Consider `OB(O)c1ccc(Cn2cc(-c3cccs3)nn2)cc1`, for which the MIC in assay [2] was over 32 µg/mL; in assay [3], over 32 µg/mL; in assay [4], 0.12 µg/mL (≈ 0.421 µM); in assay [5], over 32 µg/mL; in assay [6], at most 0.03 µg/mL.
On to `Nc1cccc(B(O)O)c1`, for which the Ki in assay [1] worked out at 7100 nM.
On to `COc1ccc(-c2cn(Cc3cccc(B(O)O)c3)nn2)cc1`, for which the MIC is over 32 µg/mL in assay [2]; over 32 µg/mL in assay [3]; 0.12 µg/mL (≈ 0.388 µM) in assay [4]; 32 µg/mL (≈ 104 µM) in assay [5]; at most 0.03 µg/mL in assay [6].
With `[N-]=[N+]=NCc1cccc(B(O)O)c1`, the MIC in assay [2] was over 32 µg/mL; in assay [3], over 32 µg/mL; in assay [4] it was under 0.03 µg/mL; in assay [5] it was 8 µg/mL (≈ 45.2 µM); in assay [6], at most 0.03 µg/mL.
With `OB(O)c1cccc(Cn2cc(-c3ccsc3)nn2)c1`, the MIC in assay [2] was over 32 µg/mL; in assay [3] it was over 32 µg/mL; in assay [4] it was under 0.03 µg/mL; in assay [5], over 32 µg/mL; in assay [6] it was at most 0.03 µg/mL.
